Assay: method code SF-AS, from Mauleón, D.; Pujol, M.; Rosell, G. (1988). B-Adrenergic antagonists: N-alkyl and N-amidoethyl (arylalkoxy)propanolamines related to propranolol. Eur J Med Chem, 23, 421-426.

With `CC(C)NCC(O)COCCCC(C)c1ccccc1` (stereo unspecified) as the molecule, how does the logP read?
The logP was 2.95.

With `CC(C)NCC(O)COC/C=C/c1ccccc1` (stereo unspecified) as the molecule, how does the logP read?
Its logP is 2.15.

Which logP does the source give for `CC(C)C(=O)NCCNCC(O)COCCCc1ccccc1` (stereo unspecified) here?
Its logP is 1.25.

With `O=C(Cc1ccccc1)NCCNCC(O)COc1ccccc1` (stereo unspecified) as the molecule, how does the logP read?
Its logP is 0.63.

With `CC(C)NCC(O)COCc1ccccc1` (stereo unspecified) as the molecule, how does the logP read?
Its logP is 1.62.

For `CC(C)NCC(O)COCCCc1ccccc1` (stereo unspecified), which logP is on record?
Its logP is 1.54.

Which logP does the source give for `O=C(Cc1ccccc1)NCCNCC(O)COCc1ccccc1` (stereo unspecified) here?
The logP was 1.05.

With `CC(C)C(=O)NCCNCC(O)COC1CCCc2ccccc21` (stereo unspecified) as the molecule, how does the logP read?
The logP was 1.99.

For `O=C(Cc1ccccc1)NCCNCC(O)COC1CCCc2ccccc21` (stereo unspecified), which logP is on record?
The logP was 1.68.

With `CC(C)C(=O)NCCNCC(O)COCc1ccccc1` (stereo unspecified) as the molecule, how does the logP read?
Its logP is 0.63.

Which logP does the source give for `CC(C)(C)NCC(O)COC1CCCc2ccccc21` (stereo unspecified) here?
The logP was 3.55.

With `CC(C)C(=O)NCCNCC(O)COCC=Cc1ccccc1` (stereo unspecified) as the molecule, how does the logP read?
The logP was 0.51.

Which logP does the source give for `CC(C)C(=O)NCCNCC(O)COc1ccccc1` (stereo unspecified) here?
Its logP is 1.14.

Which logP does the source give for `CC(C)(C)NCC(O)COc1ccccc1` (stereo unspecified) here?
Its logP is 1.5.

For `CC(C)(C)NCC(O)COCc1ccccc1` (stereo unspecified), which logP is on record?
The logP was 1.7.

With `CC(C)NCC(O)COCCc1ccccc1` (stereo unspecified) as the molecule, how does the logP read?
The logP was 1.76.

With `CC(C)(C)NCC(O)COCCOc1ccccc1` (stereo unspecified) as the molecule, how does the logP read?
The logP was 2.35.

With `CC(C)NCC(O)COCCOc1ccccc1` (stereo unspecified) as the molecule, how does the logP read?
The logP was 1.63.

Which logP does the source give for `CC(C)(C)NCC(O)COCCc1ccccc1` (stereo unspecified) here?
The logP was 2.51.

Which logP does the source give for `O=C(Cc1ccccc1)NCCNCC(O)COCC=Cc1ccccc1` (stereo unspecified) here?
Its logP is 1.76.

For `CC(C)C(=O)NCCNCC(O)COCCc1ccccc1` (stereo unspecified), which logP is on record?
The logP was 0.95.

For `CC(C)C(=O)NCCNCC(O)COCCOc1ccccc1` (stereo unspecified), which logP is on record?
The logP was 0.48.

For `O=C(Cc1ccccc1)NCCNCC(O)COCCOc1ccccc1` (stereo unspecified), which logP is on record?
The logP was 0.75.

With `O=C(Cc1ccccc1)NCCNCC(O)COCCc1ccccc1` (stereo unspecified) as the molecule, how does the logP read?
Its logP is 1.24.

For `CC(C)NCC(O)COC1CCCc2ccccc21` (stereo unspecified), which logP is on record?
The logP was 3.42.

For `CC(CCCOCC(O)CNC(C)(C)C)c1ccccc1` (stereo unspecified), which logP is on record?
The logP was 2.29.

From the SangsterLogP compilation
